Calls of active or inactive are those of the source. The rule behind the calls is not given here.

For data set [1], the system named is Mus musculus. As to the kind of experiment: Anxiolytic activity in BALB/c mouse assessed as reduction in anxiety like behaviour administered orally 1 hr prior to experiment by cylinder exploratory test. The conditions noted are these: for ED50: po. It is filed as functional.
Data set [2] has as its system Mus musculus. As to the kind of experiment: Anxiolytic activity in BALB/c mouse at 25 mg/kg, po administered 1 hr prior to experiment by cylinder exploratory test relative to control. It is filed as functional.
The nature of data set [3]: Effect on locomotor activity in BALB/c mouse assessed as reduction in time spent in rotarod at 100 mg/kg, po measured after 1 hr post treatment by rotarod test. It is filed as ADME, organism-based. Particulars: in vivo. (In the rotarod test animals must keep their balance on a rotating rod.)
Data set [4] in a line: Effect on locomotor activity in BALB/c mouse assessed as reduction in time spent in rotarod at <25 mg/kg, po by rotarod test. It is filed as ADME, organism-based. The conditions noted are these: in vivo.
Data set [5] has as its system Mus musculus. In words: Anxiolytic activity in BALB/c mouse at 7.7 mg/kg, po after 5 mins in presence of GABAA receptor antagonist 0.7 mg/kg bicuculline by cylinder exploratory test. It is filed as functional, organism-based.
Data set [6] concerns Mus musculus. In words: Anxiolytic activity in BALB/c mouse at 7.7 mg/kg, po after 5 mins in presence of 1 mg/kg ketanserin by cylinder exploratory test. It is filed as functional, organism-based.
The test system of data set [7] is Mus musculus. In words: Anxiolytic activity in BALB/c mouse at 7.7 mg/kg, po after 5 mins in presence of 1 mg/kg yohimbine by cylinder exploratory test. It is filed as functional, organism-based.
Data set [8] relates to Mus musculus. As to the kind of experiment: Anxiolytic activity in BALB/c mouse at 3.3 mg/kg, po after 5 mins in presence of GABAA receptor antagonist 0.7 mg/kg bicuculline by cylinder exploratory test. It is filed as functional, organism-based.
Data set [9] has as its system Mus musculus. As to the kind of experiment: Anxiolytic activity in BALB/c mouse at 3.3 mg/kg, po after 5 mins in presence of 1 mg/kg ketanserin by cylinder exploratory test. It is filed as functional, organism-based.
Data set [10] relates to Mus musculus. In words: Anxiolytic activity in BALB/c mouse at 3.3 mg/kg, po after 5 mins in presence of 1 mg/kg yohimbine by cylinder exploratory test. It is filed as functional, organism-based.

With `CCOC(=O)[C@]1(C#N)[C@@H](c2ccccc2)Cc2c(c3ccccc3n2Cc2ccccc2)[C@@H]1CC=O`, the Activity entry in the data set on Mus musculus [1] is “Dose-dependent effect”; in the data set on Mus musculus [2], 83.4%; in data set [3], “Toxic”; in data set [4] it was “Non-Toxic”. Besides, the ED50 (as a rule, the midpoint of the dose-response relation) with Mus musculus [1] was determined as 7.7 mg/kg. In the data set with Mus musculus [5], the result was inactive. Also, the result in the data set with Mus musculus [6] and in the data set on Mus musculus [7] was Active.
Take `CCOC(=O)[C@]1(C#N)[C@@H](c2ccccc2)Cc2c(c3ccccc3n2C(=O)OC(C)(C)C)[C@@H]1CC=O`: the Activity result was “Dose-dependent effect” in the data set with Mus musculus [1], 72% in the data set with Mus musculus [2] and “Non-Toxic” in data set [4]. Also, the ED50 in the data set with Mus musculus [1] is 3.3 mg/kg. The outcome in the data set with Mus musculus [8] was inactive. Besides, the outcome with Mus musculus [9] and in the data set with Mus musculus [10] was Active.

For the origin of these results see ChEMBL document CHEMBL4627321, “Enantioselective synthesis of tetrahydrocarbazoles via trienamine catalysis and their anxiolytic-like activity” (Bioorg Med Chem Lett, 2020).
